Test results reported in patent publication US7728158B2, “PPAR activity regulators” (Ajinomoto Co., Inc., priority 2006, dated 2010).

Legend:
PPAR-α = molecular target: T1, PPAR-α (Homo sapiens, UniProt Q07869); assay: PPAR-α reporter assay (GAL4 luciferase, CV-1 cells); assay type: cell-based; settings: induction ratio of luciferase activity at 50 μM, activity without tested compound = 1, hGR-GAL4-hPPAR-α
T1 construct: expressed in transfected cells; host or cells: CV-1 (African green monkey kidney)
T1 sequence (Q07869 167-468): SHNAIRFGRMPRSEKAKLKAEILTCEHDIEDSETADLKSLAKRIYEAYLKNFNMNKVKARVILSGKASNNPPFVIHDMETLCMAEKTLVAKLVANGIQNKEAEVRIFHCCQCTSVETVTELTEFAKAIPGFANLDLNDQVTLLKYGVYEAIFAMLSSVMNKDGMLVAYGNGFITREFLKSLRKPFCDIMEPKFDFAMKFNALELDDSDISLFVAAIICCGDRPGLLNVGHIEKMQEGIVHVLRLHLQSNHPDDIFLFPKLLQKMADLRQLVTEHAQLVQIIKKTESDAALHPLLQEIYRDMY
Procedure: The reporter assay of PPAR (peroxisome proliferator-activated receptor)-α was conducted by using the following plasmids in accordance with the known report (Steven A. Kliwer et al., The Journal of Biological Chemistry Vol. 270, No. 22: 12953-12956, 1995).
As luciferase expressing plasmid, used was the plasmid which introduces the sequence wherein 5 yeast GAL4 binding sequences, UAS (upstream activating sequence), are tandemly connected to the upstream of the thymidine kinase promoter of pTAL-Luc (#6252-1, produced by Clontech) (UAS×5-TK-Luc) (1).
(§1) As PPAR-α receptor expressing plasmid, used was the plasmid which introduces the N-terminal domain of human GR (1-76aa), the yeast GAL4 DNA binding domain (1-147aa) and PPAR-α ligand binding domain (167-468aa) to NotI site and SalI site of pExchange-1 core vector (#211176, produced by Stratagene) (hGR-GAL4-hPPAR-α) (2). The plasmid mixed solution used in the reporter assay of PPAR-α contains above (1), (2) and plasmid pcDNA3.1(−) as a carrier in the weight ratio of 4:1:3.
The medium having the following composition was used for seeding cell line CV-1 used in the reporter assay, derived from the kidney of an African green monkey, on the plate; and for diluting the tested compounds. Used was Dulbecco modified Eagle medium (D2902 without phenol red, produced by SIGMA) to which 3.7 g/L of NaHCO3, 3.5 g/L of D-glucose and 10% v/v fetal bovine serum were added.
(§2) CV-1 cells were seeded on the 384-well white plate (781080, produced by Greiner) to become 1.5×10^4 cells/30 μL per one well. Then, gene transfer was conducted in accordance with the manual by using OPTI-MEM I (11058-021, produced by GIBCO), FuGENE6 (1-815-075, produced by Roche) and the above PPAR-α plasmid mixed solution. The incubation was conducted in a carbon-dioxide incubator at 37° C. for 6 to 8 hours. Then, a diluted tested compound was added thereto and incubated in a carbon-dioxide incubator at 37° C. for 16 to 18 hours. Britelite (6016979, produced by PerkinElmer) was further added thereto and stirred, and the luciferase activity was measured with EnVision (produced by PerkinElmer).
(§3) Specifying the luciferase activity without addition of a tested compound as 1, the induction ratio of the luciferase activity by each tested compound was calculated.

PPAR-γ = molecular target: T2, PPAR-γ (Homo sapiens, UniProt P37231); assay: PPAR-γ reporter assay (GAL4 luciferase, CV-1 cells); assay type: cell-based; settings: induction ratio of luciferase activity at 25 μM, activity without tested compound = 1, hGR-GAL4-hPPAR-γ
T2 construct: expressed in transfected cells; host or cells: CV-1 (African green monkey kidney)
T2 sequence (P37231 204-505): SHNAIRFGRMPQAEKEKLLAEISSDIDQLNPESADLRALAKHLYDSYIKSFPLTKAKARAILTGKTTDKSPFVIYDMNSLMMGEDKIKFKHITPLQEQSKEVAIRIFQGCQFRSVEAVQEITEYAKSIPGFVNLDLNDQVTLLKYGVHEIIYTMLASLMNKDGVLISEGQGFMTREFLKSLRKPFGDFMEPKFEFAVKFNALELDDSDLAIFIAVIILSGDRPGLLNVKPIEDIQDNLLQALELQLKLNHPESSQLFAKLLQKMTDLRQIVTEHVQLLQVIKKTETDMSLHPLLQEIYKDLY
Procedure: The reporter assay of PPAR-γ was conducted by using the following plasmids in accordance with the known report (Steven A. Kliwer et al., The Journal of Biological Chemistry Vol. 270, No. 22: 12953-12956, 1995).
As luciferase expressing plasmid, used was the plasmid which introduces the sequence wherein 5 yeast GAL4 binding sequences, UAS, are tandemly connected to the upstream of the thymidine kinase promoter of pTAL-Luc (#6252-1, produced by Clontech) (UAS×5-TK-Luc) (1).
as §1, with “As PPAR-γ” for “As PPAR-α”, “and PPAR-γ2” for “and PPAR-α”, “domain (204-505aa)” for “domain (167-468aa)”, “Stratagene) (hGR-GAL4-hPPAR-γ)” for “Stratagene) (hGR-GAL4-hPPAR-α)”, “of PPAR-γ” for “of PPAR-α”
as §2, with “PPAR-γ” for “PPAR-α”
as §3

| PPAR-α induction ratio (PPAR-α) | PPAR-γ induction ratio (PPAR-γ) | SMILES |
| --- | --- | --- |
| 25.0 | 15.4 | CCCCCCCCCCCC(=O)NC(C)C(=O)O (racemic) [Example 13] |
| 23.0 | 18.5 | CCCCCCCCCCCC(=O)NC(C)(CC)C(=O)O (racemic) [Example 16] |
| 39.0 | 24.0 | CCCCCCCCCCCC(=O)NC(C)(C(=O)O)C(C)C (racemic) [Example 18] |
| 45.0 | 19.2 | CCCCCCCCCCCC(=O)NC(C(N)=O)C(C)C (racemic) [Example 21] |
| 44.0 | 16.6 | CCCCCCCCCCCCNC(=O)C(NC(=O)CCCCCCCCCCC)C(C)C (racemic) [Example 22] |
| 63.0 | 21.3 | CCCCCCCCCCCC(=O)N[C@H](C(=O)NC1CCCCC1)C(C)C (racemic) [Example 23, N-lauroyl-L-valine cyclohexylamide] |
| 2.3 | 2.7 | CCCCCCCCCCCC(=O)NC(C(=O)O)C(C(F)(F)F)C(F)(F)F (racemic) [Example 34] |
| 2.8 | 3.2 | CCCCCCCCCCCC(=O)NC(Cc1ccccc1C)C(=O)O (racemic) [Example 38] |
| 7.3 | 5.1 | CCCCCCCCCCCC(=O)NC(C)(Cc1ccccc1)C(=O)O (racemic) [Example 41] |
| 0.9 | 6.1 | CCCCCCCCC(=O)N[C@@H](CC(C)C)C(=O)O [Example 3] |
| 3.1 | 12.9 | CCCCCCCCC(=O)N[C@H](C(=O)O)C(C)C [Example 4] |
| 3.5 | 15.9 | CCCCCCCCCC(=O)N[C@H](C(=O)O)[C@@H](C)CC [Example 5] |
| 1.3 | 9.5 | CCCCCCCCCC(=O)N[C@@H](CC(C)C)C(=O)O [Example 6] |
| 2.7 | 11.5 | C=CCCCCCCCCC(=O)N[C@@H](CC(C)C)C(=O)O [Example 7] |
| 1.3 | 4.4 | C=CCCCCCCCCC(=O)N[C@@H](Cc1ccccc1)C(=O)O [Example 8] |
| 19.0 | 25.4 | CCCCCCCCCC(=O)N[C@H](C(=O)O)C(C)C [Example 9] |
| 23.0 | 15.3 | C=CCCCCCCCCC(=O)N[C@H](C(=O)O)C(C)C [Example 10] |
| 3.0 | 11.6 | CCCCCCCCCCC(=O)N[C@@H](CC(C)C)C(=O)O [Example 11] |
| 1.4 | 4.2 | CCCCCCCCCCC(=O)N[C@@H](Cc1ccccc1)C(=O)O [Example 12] |
| 51.0 | 20.5 | CCCCCCCCCCCC(=O)N[C@H](C(=O)O)[C@@H](C)CC [Example 14] |

| PPAR-α induction ratio (PPAR-α) | PPAR-γ induction ratio (PPAR-γ) | SMILES |
| --- | --- | --- |
| 11.0 | 9.7 | CCCCCCCCCCCC(=O)N[C@@H](CC(C)C)C(=O)O [Example 15] |
| 32.0 | 20.3 | CCCCCCCCCCCC(=O)NC(C)(C)C(=O)O [Example 17] |
| 24.0 | 20.9 | CCCCCCCCCCCC(=O)N[C@@H](CCSC)C(=O)O [Example 19] |
| 52.0 | 19.1 | CCCCCCCCCCCC(=O)N[C@H](C(=O)O)C(C)C [Example 20, N-lauroyl-L-valine] |
| 46.0 | 16.4 | CCCCCCCCCCCC(=O)N(CC)[C@H](C(=O)O)C(C)C [Example 24] |
| 50.0 | 27.4 | CCCCCCCCCCCCCC(=O)N[C@H](C(=O)O)[C@@H](C)CC [Example 25] |
| 33.0 | 21.0 | CCCCCCCCCCCCCC(=O)N[C@@H](CC(C)C)C(=O)O [Example 26] |
| 2.5 | 11.7 | CCCCCCCCCCCCCCCC(=O)N[C@@H](CC(C)C)C(=O)O [Example 27] |
| 29.0 | 17.1 | CCCCCCCCCCCCCCCC(=O)N[C@H](C(=O)O)C(C)C [Example 28] |
| 1.6 | 12.3 | CCCCCCCCCCCCCCCCCC(=O)N[C@@H](CC(C)C)C(=O)O [Example 29] |
| 15.0 | 13.7 | CCCCCCCCCCCCCCCCCC(=O)N[C@H](C(=O)O)C(C)C [Example 30] |
| 1.2 | 4.4 | CCCCCCCCCCCCCCCCCCCCCC(=O)N[C@H](C(=O)O)C(C)C [Example 31] |
| 31.5 | 15.2 | CCCCCCCCCC(=O)N[C@H](C(=O)O)C(C)(C)C [Example 32] |
| 81.0 | 30.2 | CCCCCCCCCCCC(=O)N[C@H](C(=O)O)C(C)(C)C [Example 33] |
| 54.7 | 21.1 | CCCCCCCCCCCC(=O)N[C@H](C(=O)O)[C@H](C)CC [Example 35] |
| 12.5 | 8.7 | CCCCCCCCCCCC(=O)N[C@H](C(=O)O)c1ccccc1 [Example 36] |
| 24.5 | 19.5 | CCCCCCCCCCCC(=O)N[C@@H](Cc1ccc(OC)cc1)C(=O)O [Example 37] |
| 2.3 | 11.2 | CCCCCCCCCCCC(=O)N[C@H](C(=O)O)C1CCCCC1 [Example 39] |
| 2.0 | 1.5 | CCCCCCCCCCCC(=O)N[C@H](C(=O)O)C(c1ccccc1)c1ccccc1 [Example 40] |

| SMILES | PPAR-α induction ratio (PPAR-α) | PPAR-γ induction ratio (PPAR-γ) |
| --- | --- | --- |
| CCCCCCCC(=O)N[C@H](C(=O)O)C(C)C [Example 1] | 1.5 | 11.9 |
| CCCCCCCCC(=O)N[C@H](C(=O)O)[C@@H](C)CC [Example 2] | 2.1 | 12.5 |
